From ChEMBL document CHEMBL3046770, “1-(6-Chloronicotinyl)-2-nitroimino-imidazolidines and Related Compounds as Potential New Insecticides” (Biosci Biotechnol Biochem, 1992)
In brackets after ≈: the same amount, converted by molar mass. Activity calls are given as the source filed them. The calls are words filed in the database; no cut-off is given here.

Test system: not listed separately
Experiment: Toxicity in Rattus norvegicus (rat) […]
Assay type: organism-based
Conditions: in vivo

Q: With `O=[N+]([O-])NC1=NCCN1Cc1ccc(Cl)nc1` [IMIDACLOPRID] as the molecule, how does the LD50 read?
A: > 5000 mg/kg

Test system: Nephotettix cincticeps
Experiment: Insecticidal activity against Nephotettix cincticeps (green rice leafhopper) infested on rice leaf assessed as mortality after 5 days
Assay type: functional
Conditions: not given

Q: With `CC(C)N1CCN(Cc2ccc(Cl)nc2)/C1=N/[N+](=O)[O-]` as the molecule, how does the LC90 read?
A: 40 ppm

Q: For `CCCCN1CCN(Cc2ccc(Cl)nc2)/C1=N/[N+](=O)[O-]`, which LC90 is on record?
A: 1.6 ppm

Q: For `O=C1NCCN1Cc1ccc(Cl)nc1`, which LC90 is on record?
A: 1000 ppm

Q: For `C#CCN1CCN(Cc2ccc(Cl)nc2)/C1=N/[N+](=O)[O-]`, which LC90 is on record?
A: 0.32 ppm

Q: For `CN1CCN(Cc2ccc(Cl)nc2)/C1=N/[N+](=O)[O-]`, which LC90 is on record?
A: 1.6 ppm

Q: Which LC90 does the source give for `CCN1CCN(Cc2ccc(Cl)nc2)/C1=N/[N+](=O)[O-]` here?
A: 8 ppm

Q: Which LC90 does the source give for `N=C1NCCN1Cc1ccc(Cl)nc1` [DESNITROIMIDACLOPRID] here?
A: 200 ppm

Q: Which LC90 does the source give for `C=CCN1CCN(Cc2ccc(Cl)nc2)/C1=N/[N+](=O)[O-]` here?
A: 0.32 ppm

Q: With `CCCN1CCN(Cc2ccc(Cl)nc2)/C1=N/[N+](=O)[O-]` as the molecule, how does the LC90 read?
A: 0.32 ppm

Q: With `O=C(c1ccccc1)N1CCN(Cc2ccc(Cl)nc2)/C1=N/[N+](=O)[O-]` as the molecule, how does the LC90 read?
A: 0.32 ppm

Q: Which LC90 does the source give for `CCCCCN1CCN(Cc2ccc(Cl)nc2)/C1=N/[N+](=O)[O-]` here?
A: 40 ppm

Q: For `CC(=O)N1CCN(Cc2ccc(Cl)nc2)/C1=N/[N+](=O)[O-]`, which LC90 is on record?
A: 0.32 ppm

Q: For `COP(=S)(OC)Oc1ccc([N+](=O)[O-])c(C)c1` [FENITROTHION], which LC90 is on record?
A: 200 ppm

Q: Which LC90 does the source give for `O=[N+]([O-])/N=C1\NCCN1Cc1ccc(Cl)nc1` [IMIDACLOPRID] here?
A: 0.32 ppm

Q: For `N#CN1CCN(Cc2ccc(Cl)nc2)/C1=N/[N+](=O)[O-]`, which LC90 is on record?
A: 0.32 ppm

Q: With `O=[N+]([O-])/C=C1\NCCN1Cc1ccc(Cl)nc1` as the molecule, how does the LC90 read?
A: 0.32 ppm

Q: For `N#CC(C#N)=C1NCCN1Cc1ccc(Cl)nc1`, which LC90 is on record?
A: 40 ppm

Test system: Lepidoptera
Experiment: Insecticidal activity against Lepidoptera
Assay type: functional, organism-based
Conditions: not given

Q: With `O=[N+]([O-])/N=C1\NCCN1Cc1ccc(Cl)nc1` [IMIDACLOPRID] as the molecule, how does the Activity read?
A: inactive

Test system: not listed separately
Experiment: Toxicity in po dosed Rattus norvegicus (rat)
Assay type: organism-based
Conditions: in vivo

Q: Which LD50 does the source give for `O=[N+]([O-])NC1=NCCN1Cc1ccc(Cl)nc1` [IMIDACLOPRID] here?
A: 450 mg/kg

Test system: not listed separately
Experiment: Toxicity in Leuciscus idus (golden orfe) after 96 hr
Assay type: organism-based
Conditions: in vivo

Q: With `O=[N+]([O-])NC1=NCCN1Cc1ccc(Cl)nc1` [IMIDACLOPRID] as the molecule, how does the LC50 at 96 h read?
A: 237 µg/mL (≈ 927 µM)

Test system: Nephotettix cincticeps
Experiment: Insecticidal activity against Nephotettix cincticeps (green rice leafhopper) infested on rice leaf assessed as increase in mortality at 1000 ppm after 5 days
Assay type: functional, organism-based
Conditions: not given

Q: For `N#C/C=C1\NCCN1Cc1ccc(Cl)nc1`, which Activity is on record?
A: inactive

Q: With `CCOC(=O)/C=C1\NCCN1Cc1ccc(Cl)nc1` as the molecule, how does the Activity read?
A: inactive
